# Test results as given in patent publication EP0462935B1, “Enantiomers of 2-tetrahydrofuran derivatives, intermediates therefor and their preparation” (SANDOZ AG, priority 1990, dated 1991).
# Where a name gives a salt, the structure may show the parent alone.
# Tests used:
# [1] = system: Experimental allergic encephalomyelitis; experiment: Experimental allergic encephalomyelitis (EAE test), preventive treatment; assay type: in vivo, rat; details: for Animals with total paralysis) % / Animals with total paralysis) No./total: preventive treatment, 25 mg/kg/day p.o., rat; for Animals with total paralysis) No./total: number of animals with total paralysis per total number of rats treated
# Protocol: 1. Experimental allergic encephalomyelitis (EAE test) in the rat; preventive treatment:
# [Levine et al., Am. J. Path. 47 (1965) 61; McFarlin et al., J. Immunol. 113 (1974) 712; Borel, Transplant. & Clin. Immunol. 13 (1981) 3]:
# Male Wistar rats are injected in the hind paws with 0.1 ml of a mixture of bovine spinal cord and complete Freund's adjuvant. The test compound is administered at dosages of from 5 to 50 mg/kg/day p.o. 5 days a week, commencing on the day of sensitization and continuing for 2 weeks. Onset of EAE in control groups receiving no medication generally commences between 9 to 16 days after sensitization and is marked by symptoms of paralysis in the hind limbs and tail. Test animals are examined daily for symptoms of the disease and disease occurrence is scored according to their severity. Total paralysis means complete involvement of both hind legs and tail. The test animals are kept under observation for a total period of 50 days.
# [2] = system: Experimental allergic encephalomyelitis; experiment: Experimental allergic encephalomyelitis (EAE test), therapeutic treatment; assay type: in vivo, rat
# Protocol: 2. Experimental allergic encephalomyelitis (EEA test) in the rat; therapeutic treatment:
# Testing is carried out analogously to that described above with the exception that the administration of the test compound commences on day 7 after sensitization (i.e. immediately prior to appearance of disease symptoms) at dosages of from 5 to 50 mg/kg/day p.o. either daily or every second day and continuing for one week. During the testing period the animals are examined daily for symptoms of the disease and scored as in the previous test method.
# [3] = system: Delayed-type hypersensitivity; experiment: Delayed-type hypersensitivity (DTH test) mediated by cloned helper T cells; assay type: in vivo, mouse; details: footpad swelling after 24 h
# Protocol: 4. Delayed-type hypersensitivity (DTH test) in the mouse:
# Suppression of DTH mediated by cloned helper T cells is tested with mice injected subcutaneously with cloned helper T cells together with the relevant antigen, namely sheep erythrocytes, in one hind footpad and with the same clone plus an unrelated antigen as control in the other footpad. The drugs are administered orally twice, first one day before and again at the time of the cell injection. After 24 h the increase in footpad thickness is measured. Footpad swelling is indicated as percentage compared with the control group (placebo).
# [4] = system: Abelson 8.1 lymphoma; experiment: Tumor cell cytotoxicity test (TCC test); assay type: cell-based; details: 72 hours
# Protocol: (§1) 1. Tumor cell cytotoxicity test (TCC test):
# (§2) In flat bottom microtiter plates (Nunc Roskieide, Denmark) are placed Abelson 8.1 lymphoma, YAC-1, L1210 or P815 tumor cells in Dulbecco modified Eagle's medium (DMEM) + 10 % fetal calf serum and the tumor cell-containing plates are incubated with 1, 3 and 5 »g of the test compound for a period of 6 to 72 hours. The number of viable tumor cells present in the Abelson 8.1, YAC-1, L1210 and P815 assays is determined by measuring the alkaline phosphatase in the following manner: the tumor cell plates are centrifuged (500 x g) for ten minutes and the supernatant flicked off. Without further washing, 100 »l of buffer containing 20 »l of diethanolamine, 2 »M of MgCl₂·6H₂O, 2.5 »M of p-nitrophenylphosphate and 10 mg Triton X-100 are added. The samples are incubated for 60 minutes at room temperature and the enzymatic reaction is terminated by the addition of 100 »l of 0.5 N NaOH. The absorbance is then measured at […] using a Titertek Multiskan apparatus.
# (§3) At an incubation period of 72 hours the following results were obtained: […]
# [5] = system: L1210; experiment: Tumor cell cytotoxicity test (TCC test); assay type: cell-based; details: 72 hours
# Protocol: as §1, §2, §3
# [6] = system: P815; experiment: Tumor cell cytotoxicity test (TCC test); assay type: cell-based; details: 72 hours
# Protocol: as §1, §2, §3
# [7] = system: YAC-1; experiment: Tumor cell cytotoxicity test (TCC test); assay type: cell-based; details: 72 hours
# Protocol: as §1, §2, §3
# [8] = system: Meth A fibrosarcoma; experiment: In vivo Meth A fibrosarcoma test; design: species or system mouse; details: for Tumor volume (% of control) day 7: day 7 after tumor implantation; for Survivors (tumor free): ten CBF₁ mice
# Protocol: In vivo Meth A fibrosarcoma test in the mouse:
# Ten CBF₁ mice of 10-12 week age are each implanted with 7.3 x 10⁶ Meth A sarcoma cells to serve as control. A second group of ten CBF₁ mice are each implanted with 7.3 x 10⁶ Meth A sarcoma cells and on day one after implant each mouse is treated p.o. with from 5 »g to 50 »g of the test compound per day for a total of twenty or twenty-seven days. Tumor growth and survivors are assayed on days 7, 14, 21 and 28 after tumor implantation.
# [9] = system: Chronic relapsing experimental allergic encephalomyelitis; experiment: Chronic relapsing experimental allergic encephalomyelitis (CR-EAE test), therapeutic treatment; assay type: in vivo, rat; details: 5 to 50 mg/kg/day p.o. for 16 days starting on day 16; for inhibiting the appearance of mild to severe clinical symptoms: for the period of treatment; for protective efficacy: during treatment and following discontinuation of drug
SMILES,Animals with total paralysis) % [1],Animals with total paralysis) No./total [1],Suppression of DTH (%) ([3]; 2 x 40 mg/kg orally),Suppression of DTH (%) ([3]; 2 x 80 mg/kg orally),Inhibition with tumor cells (%) Abelson 8.1 ([4]; 1 »g/ml),Inhibition with tumor cells (%) Abelson 8.1 ([4]; 3 »g/ml),Inhibition with tumor cells (%) Abelson 8.1 ([4]; 5 »g/ml),Inhibition with tumor cells (%) L1210 ([5]; 1 »g/ml),Inhibition with tumor cells (%) L1210 ([5]; 3 »g/ml),Inhibition with tumor cells (%) L1210 ([5]; 5 »g/ml),Inhibition with tumor cells (%) P815 ([6]; 1 »g/ml),Inhibition with tumor cells (%) P815 ([6]; 3 »g/ml),Inhibition with tumor cells (%) P815 ([6]; 5 »g/ml),Inhibition with tumor cells (%) YAC-1 ([7]; 1 »g/ml),Inhibition with tumor cells (%) YAC-1 ([7]; 3 »g/ml),Inhibition with tumor cells (%) YAC-1 ([7]; 5 »g/ml),Tumor volume (% of control) day 7 ([8]; 5 »g per mouse per day p.o.),Tumor volume (% of control) day 14 ([8]; 5 »g per mouse per day p.o.),Tumor volume (% of control) day 21 ([8]; 5 »g per mouse per day p.o.),Tumor volume (% of control) day 28 ([8]; 5 »g per mouse per day p.o.),other results
"CCCCCCCCCCCCCCCCCCOCC1(COP(=O)([O-])OCC[N+](C)(C)C)CCCO1 (racemic) [Example 5 of USP 4'673'672, reference compound]",43%,3/7,31%,88%,68%,97%,98%,0%,80%,91%,40%,87%,95%,19%,74%,91%,82 % of control,47 % of control,20 % of control,32 % of control,"Animals with EAE) % ([2]; therapeutic treatment from day 7, 25 mg/kg/day p.o., rat): 29%; Animals with EAE) No./total ([2]; therapeutic treatment from day 7, 25 mg/kg/day p.o., rat, number of animals with symptoms of disease per total number of rats treated): 2/7; Survivors (tumor free) ([8]; 5 »g per mouse per day p.o.): 3/10; Tumor volume (% of control) day 7 ([8]; 50 »g per mouse per day p.o.): 76 % of control; Tumor volume (% of control) day 14 ([8]; 50 »g per mouse per day p.o.): 38 % of control; Tumor volume (% of control) day 21 ([8]; 50 »g per mouse per day p.o.): 14 % of control; Tumor volume (% of control) day 28 ([8]; 50 »g per mouse per day p.o.): 21 % of control; Survivors (tumor free) ([8]; 50 »g per mouse per day p.o.): 6/10"
CCCCCCCCCCCCCCCCCCOCC1(COP(=O)([O-])OCC[N+](C)(C)C)CCCO1 (racemic) [compound of Example 5 of USP 4'673'672],–,–,–,–,–,–,–,–,–,–,–,–,–,–,–,–,–,–,–,–,inhibiting the appearance of mild to severe clinical symptoms [9]: effective
"CCCCCCCCCCCCCCCCCCOC[C@@]1(COP(=O)([O-])OCC[N+](C)(C)C)CCCO1 [Compound of formula I, (R)-2-[(2-Octadecyloxymethyltetrahydrofuran-2-ylmethoxy)-hydroxyphosphinyloxy]-N,N,N-trimethylethanaminium hydroxide inner salt-4-oxide]",36%,5/14,73%,88%,29%,93%,95%,16%,76%,87%,32%,80%,97%,8%,86%,96%,90 % of control,52 % of control,21 % of control,37 % of control,"occurrence of clinical symptoms ([1]; 5 to 50 mg/kg/day p.o. 5 days a week for 2 weeks, versus placebo control groups): substantial reduction of occurrence of clinical symptoms; appearance of EAE disease symptoms ([2]; 5 to 50 mg/kg/day p.o. from day 7 for one week, versus placebo control groups): substantial reduction of appearance of EAE disease symptoms; protective efficacy [9]: effective to fully protect all animals both during treatment and following discontinuation of drug; inhibiting the appearance of mild to severe clinical symptoms [9]: effective; Survivors (tumor free) ([8]; 5 »g per mouse per day p.o.): 2/10; Tumor volume (% of control) day 7 ([8]; 50 »g per mouse per day p.o.): 85 % of control; Tumor volume (% of control) day 14 ([8]; 50 »g per mouse per day p.o.): 53 % of control; Tumor volume (% of control) day 21 ([8]; 50 »g per mouse per day p.o.): 21 % of control; Tumor volume (% of control) day 28 ([8]; 50 »g per mouse per day p.o.): 32 % of control; Survivors (tumor free) ([8]; 50 »g per mouse per day p.o.): 3/10"
"CCCCCCCCCCCCCCCCCCOC[C@]1(COP(=O)([O-])OCC[N+](C)(C)C)CCCO1 [Enantiomer of the compound of formula I, (S)-2-[(2-Octadecyloxymethyltetrahydrofuran-2-ylmethoxy)-hydroxyphosphinyloxy)-N,N,N-trimethylethanaminium hydroxide inner salt-4-oxide]",86%,12/14,16%,40%,91%,98%,98%,45%,92%,97%,84%,93%,97%,40%,78%,91%,66 % of control,19 % of control,6 % of control,11 % of control,"protective efficacy [9]: much less effective protective efficacy during treatment; Survivors (tumor free) ([8]; 5 »g per mouse per day p.o.): 8/10; Survivors (tumor free) ([8]; 5 »g per mouse per day p.o., listed as (S)-isomer): 8 out of 10; Tumor volume (% of control) day 7 ([8]; 50 »g per mouse per day p.o.): 70 % of control; Tumor volume (% of control) day 14 ([8]; 50 »g per mouse per day p.o.): 28 % of control; Tumor volume (% of control) day 21 ([8]; 50 »g per mouse per day p.o.): 8 % of control; Tumor volume (% of control) day 28 ([8]; 50 »g per mouse per day p.o.): 13 % of control; Survivors (tumor free) ([8]; 50 »g per mouse per day p.o.): 8/10"
